Among the data in patent US20260176282A1, “BICYCLIC COMPOUNDS AS CDK INHIBITORS” (BEONE MEDICINES I GMBH, priority 2023, published 2026) are IC50 values, retold here.

Like-named read-outs stand apart in the source and are kept apart here.

The subject of experiment [1] is HEK-293 cells. The experiment is described as follows: HEK-293 cell cytotoxicity detection (CellTiter-Glo). It is filed as cell-based. As to conditions: incubation of 72 h, CellTiter-Glo luminescence. On the procedure:
HEK-293 cells were treated with compounds diluted in 0.4% DMSO, dilution was done according to the following protocol: (1) making 250× stock solution in DMSO from 10 mM by 4-fold dilution, total 8 doses were included; (2) making 2 solution in cell culture medium by transferring 1 μl 250× stock solution into 124 μl medium; (3) adding 50 μl of 2× solution to cells for incubation of 72 h.
25 μl of the CellTiter-Glo® Reagent [(PromegaCat #G9242)] was added to each well in the 96-well plate. The contents were mixed for 2 minutes on an orbital shaker to induce cell lysis. The plate was then allowed to incubate at room temperature for 10 minutes to stabilize luminescent signal. Luminescence was recorded on BMG PheraStar with luminescence protocol.
The IC50 value of a compound can be obtained by fitting the following equation: […]
Wherein, X and Y are known values, and IC50, Hillslope, Top and Bottom are the parameters obtained by fitting with software. Y is the inhibition percentage (calculated from the equation), X is the concentration of the compound; IC50 is the concentration of the compound when the 50% inhibition is reached. The smaller the IC50 value is, the stronger the inhibitory ability of the compound is. Vice versa, the higher the IC50 value is, the weaker the ability the inhibitory ability of the compound is; Hillslope represents the slope of the fitted curve, generally around 1*; Bottom represents the minimum value of the curve obtained by data fitting, which is generally 0%±20%; Top represents the maximum value of the curve obtained by data fitting, which is generally 100%±20%. The experimental data were fitted by calculating and analyzing with Dotmatics data analysis software.
A general note: Cellular ATP, detected with luciferase, serves as a proxy for viable cell number.

Experiment [2] concerns the target CDK2/Cyclin E1 (Homo sapiens, UniProt P24941). The experiment can be described thus: CDK2/Cyclin E1 TR-FRET biochemical assay (0.060 mM ATP). As to conditions: 120 minutes reaction. The procedure: (§1) Compounds disclosed herein were tested for inhibition of CDK2/Cyclin E1 or CDK1/Cyclin B1 kinase in an assay based on the time-resolved fluorescence-resonance energy transfer (TR-FRET) methodology. The assay was carried out in 384-well low volume black plates in a reaction mixture containing CDK2/Cyclin E1 or CDK1/Cyclin B1, 0.060 mM ATP for CDK2/Cyclin E1 or 0.015 mM ATP for CDK1/Cyclin B1, 0.15 μM Rb (Ser780)-biotin substrate and 0-10 μM compound in buffer containing 50 mM HEPES pH7.0, 0.02% NaN3, 0.01% BSA, 0.1 mM Orthovanadate, 50 mM MgCl2, 1 mM DTT and 0.005% Tween-20. The kinase was incubated with compound for 60 minutes at room temperature and the reaction was initiated by the addition of ATP and Rb (Ser780)-biotin substrate. After reaction at room temperature for 120 minutes, an equal volume of stop/detection solution was added according to the manufacture's instruction (Cisbio Bioassays). The stop/detection solution contained Streptavidin-XL665 and Anti-pRb (Ser780) mAb-Eu Cryptate in Detection buffer (Cisbio Bioassays). Plates were incubated at room temperature for 60 minutes, and the TR-FRET signals (ex337 nm, em665 nm/620 nm) were recorded on a PHERAstar FSX plate reader (BMG Labtech). The inhibition percentage of CDK2/Cyclin E1 or CDK1/Cyclin B1 kinase activity in presence of increasing concentrations of compounds was calculated based on the ratio of fluorescence at 665 nm to that at 620 nm. The IC50 for each compound was derived from fitting the data to the four-parameter logistic equation by Dotmatics.
A general note: TR-FRET usually uses a lanthanide donor and a delayed reading to cut background.

Experiment [3] has as its target CDK1/Cyclin B1 (Homo sapiens, UniProt P06493). The experiment is described as follows: CDK1/Cyclin B1 TR-FRET biochemical assay (0.015 mM ATP). The note with it: 120 minutes reaction. On the procedure:
as §1

CDK1/Cyclin B1, sequence (P06493 whole entry): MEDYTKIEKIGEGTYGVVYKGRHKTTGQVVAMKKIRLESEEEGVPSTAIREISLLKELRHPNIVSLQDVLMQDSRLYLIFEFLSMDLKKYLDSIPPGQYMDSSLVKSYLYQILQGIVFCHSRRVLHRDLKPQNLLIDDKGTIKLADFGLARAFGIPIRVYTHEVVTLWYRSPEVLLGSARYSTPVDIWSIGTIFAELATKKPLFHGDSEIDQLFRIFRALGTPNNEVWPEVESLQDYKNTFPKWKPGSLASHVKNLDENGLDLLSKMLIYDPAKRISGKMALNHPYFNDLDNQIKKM
CDK1/Cyclin B1, sequence (P14635 whole entry partner): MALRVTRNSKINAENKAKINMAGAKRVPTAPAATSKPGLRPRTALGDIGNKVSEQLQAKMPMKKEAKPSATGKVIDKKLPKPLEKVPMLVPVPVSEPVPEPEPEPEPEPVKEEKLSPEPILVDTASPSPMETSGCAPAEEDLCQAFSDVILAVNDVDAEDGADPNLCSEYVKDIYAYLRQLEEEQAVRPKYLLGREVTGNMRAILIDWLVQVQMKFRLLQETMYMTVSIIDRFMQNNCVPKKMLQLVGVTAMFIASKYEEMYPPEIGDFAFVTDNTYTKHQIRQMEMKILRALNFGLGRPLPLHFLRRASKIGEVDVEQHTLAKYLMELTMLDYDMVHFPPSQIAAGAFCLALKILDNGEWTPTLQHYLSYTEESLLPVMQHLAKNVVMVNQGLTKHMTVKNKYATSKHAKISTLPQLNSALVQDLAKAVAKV

Usually IC50 stands for the concentration needed to halve the response being measured. `CC(C)NC(=O)O[C@H]1CC[C@@H](c2cc(Nc3cc4c(cc3F)S(=O)(=O)CC4)n[nH]2)C1` (relative stereo) [Example 1, cis-3-(3-((6-fluoro-1,1-dioxido-2,3-dihydrobenzo[b]thiophen-5-yl)amino)-1H-pyrazol-5-yl)cyclopentyl isopropylcarbamate]: the IC50 in experiment [1] (Homo sapiens, HEK293, 72 h) was greater than 10000 nM; in experiment [2], 49 nM; in experiment [3], 1140 nM.
Taken in the same sequence, the figures for `CCCNC(=O)O[C@H]1CC[C@@H](c2cc(Nc3ccc4c(c3F)S(=O)(=O)CC4)n[nH]2)C1` (relative stereo) [Example 4, cis-3-(3-((7-fluoro-1,1-dioxido-2,3-dihydrobenzo[b]thiophen-6-yl)amino)-1H-pyrazol-5-yl)cyclopentyl propylcarbamate] were 8590 nM, 17 nM and 191 nM.
The like results for `CC1(NC(=O)O[C@H]2CC[C@@H](c3cc(Nc4ccc5c(c4F)S(=O)(=O)CC5)n[nH]3)C2)CC1` (relative stereo) [Example 6, cis-3-(3-((7-fluoro-1,1-dioxido-2,3-dihydrobenzo[b]thiophen-6-yl)amino)-1H-pyrazol-5-yl)cyclopentyl (1-methylcyclopropyl)carbamate] were, in that order, 440 nM, 1.1 nM and 20 nM.
Taken in the same sequence, the figures for `CC(C)NC(=O)O[C@H]1CC[C@@H](c2cc(Nc3ccc4c(c3)CS(=O)(=O)C4)n[nH]2)C1` (relative stereo) [Example 7, cis-3-(3-((2,2-dioxido-1,3-dihydrobenzo[c]thiophen-5-yl)amino)-1H-pyrazol-5-yl)cyclopentyl isopropylcarbamate] were 684 nM, 1.1 nM and 12 nM.
For the molecule `CC(C)NC(=O)O[C@H]1CC[C@@H](c2cc(Nc3ccc4c(c3F)CS(=O)(=O)C4)n[nH]2)C1` (relative stereo) [Example 8b, cis-3-(3-((4-fluoro-2,2-dioxido-1,3-dihydrobenzo[c]thiophen-5-yl)amino)-1H-pyrazol-5-yl)cyclopentyl isopropylcarbamate], the half-inhibitory concentration (IC50) in experiment [1] (Homo sapiens, HEK293, 72 h) came to 462 nM; in experiment [2], 0.5 nM; in experiment [3], 7.9 nM.
Taken in the same sequence, the figures for `CC1(NC(=O)O[C@H]2CC[C@@H](c3cc(Nc4ccc5c(c4F)CS(=O)(=O)C5)n[nH]3)C2)CC1` (relative stereo) [Example 11, cis-3-(3-((4-fluoro-2,2-dioxido-1,3-dihydrobenzo[c]thiophen-5-yl)amino)-1H-pyrazol-5-yl)cyclopentyl (1-methylcyclopropyl)carbamate] were 317 nM, 0.3 nM and 3.3 nM.
The like results for `COCC(C)(C)NC(=O)O[C@H]1CC[C@@H](c2cc(Nc3ccc4c(c3F)CS(=O)(=O)C4)n[nH]2)C1` (relative stereo) [Example 14, cis-3-(3-((4-fluoro-2,2-dioxido-1,3-dihydrobenzo[c]thiophen-5-yl)amino)-1H-pyrazol-5-yl)cyclopentyl (1-methoxy-2-methylpropan-2-yl)carbamate] were, in that order, greater than 10000 nM, 0.6 nM and 10 nM.
In the case of `CC(C)NC(=O)OC1CCC(c2cc(Nc3ccc4c(c3F)CCS4(=O)=O)n[nH]2)C1` (single isomer, unassigned) [Example 2a, cis-3-(3-((4-fluoro-1,1-dioxido-2,3-dihydrobenzo[b]thiophen-5-yl)amino)-1H-pyrazol-5-yl)cyclopentyl isopropylcarbamate], the IC50 in experiment [1] (Homo sapiens, HEK293, 72 h) was greater than 10000 nM; in experiment [2], 16 nM; in experiment [3], 591 nM.
On to `CC(C)NC(=O)OC1CCC(c2cc(Nc3ccc4c(c3F)CCS4(=O)=O)n[nH]2)C1` (single isomer, unassigned) [Example 2b, cis-3-(3-((4-fluoro-1,1-dioxido-2,3-dihydrobenzo[b]thiophen-5-yl)amino)-1H-pyrazol-5-yl)cyclopentyl isopropylcarbamate], for which the half-maximal inhibitory concentration (IC50) in experiment [1] (read-out: HEK293 IC50) was greater than 10000 nM; in experiment [2], 4.8 nM; in experiment [3] it was 207 nM.
The like results for `CC(C)NC(=O)OC1CCC(c2cc(Nc3ccc4c(c3F)S(=O)(=O)CC4)n[nH]2)C1` (single isomer, unassigned) [Example 3a, cis-3-(3-((7-fluoro-1,1-dioxido-2,3-dihydrobenzo[b]thiophen-6-yl)amino)-1H-pyrazol-5-yl)cyclopentyl isopropylcarbamate] were, in that order, 1780 nM, 4.1 nM and 132 nM.
The like results for `CC(C)NC(=O)OC1CCC(c2cc(Nc3ccc4c(c3F)S(=O)(=O)CC4)n[nH]2)C1` (single isomer, unassigned) [Example 3b, cis-3-(3-((7-fluoro-1,1-dioxido-2,3-dihydrobenzo[b]thiophen-6-yl)amino)-1H-pyrazol-5-yl)cyclopentyl isopropylcarbamate] were, in that order, 677 nM, 1.9 nM and 31 nM.
In the case of `CC(C)NC(=O)O[C@@H]1CC[C@H](c2cc(Nc3ccc4c(c3F)CS(=O)(=O)C4)n[nH]2)C1` (single isomer, unassigned) [Example 8a, cis-3-(3-((4-fluoro-2,2-dioxido-1,3-dihydrobenzo[c]thiophen-5-yl)amino)-1H-pyrazol-5-yl)cyclopentyl isopropylcarbamate], the IC50 in experiment [1] (Homo sapiens, HEK293, 72 h) was 514 nM; in experiment [2] it was 0.7 nM; in experiment [3] it was 30 nM.
Consider `CCCNC(=O)OC1CCC(c2cc(Nc3ccc4c(c3F)CS(=O)(=O)C4)n[nH]2)C1` (single isomer, unassigned) [Example 9a, cis-3-(3-((4-fluoro-2,2-dioxido-1,3-dihydrobenzo[c]thiophen-5-yl)amino)-1H-pyrazol-5-yl)cyclopentyl propylcarbamate], for which the IC50 in experiment [1] (read-out: HEK293 IC50) is greater than 10000 nM; in experiment [2], 0.8 nM; in experiment [3], 50 nM.
The like results for `CCCNC(=O)OC1CCC(c2cc(Nc3ccc4c(c3F)CS(=O)(=O)C4)n[nH]2)C1` (single isomer, unassigned) [Example 9b, cis-3-(3-((4-fluoro-2,2-dioxido-1,3-dihydrobenzo[c]thiophen-5-yl)amino)-1H-pyrazol-5-yl)cyclopentyl propylcarbamate] were, in that order, 4410 nM, 0.7 nM and 12 nM.
As to `CC[C@H](C)NC(=O)OC1CCC(c2cc(Nc3ccc4c(c3F)S(=O)(=O)CC4)n[nH]2)C1` (stereo in doubt) [Example 5, cis-3-(3-((7-fluoro-1,1-dioxido-2,3-dihydrobenzo[b]thiophen-6-yl)amino)-1H-pyrazol-5-yl)cyclopentyl ((S)-sec-butyl)carbamate], the IC50 amounted to 1650 nM in experiment [1] (Homo sapiens, HEK293, 72 h); 5 nM in experiment [2]; 117 nM in experiment [3].
Taken in the same sequence, the figures for `CC[C@H](C)NC(=O)OC1CCC(c2cc(Nc3ccc4c(c3F)CS(=O)(=O)C4)n[nH]2)C1` (stereo in doubt) [Example 10, cis-3-(3-((4-fluoro-2,2-dioxido-1,3-dihydrobenzo[c]thiophen-5-yl)amino)-1H-pyrazol-5-yl)cyclopentyl ((S)-sec-butyl)carbamate] were 203 nM, 0.4 nM and 5 nM.
